Source: ChEMBL document CHEMBL1125696, “Synthesis and structure-activity relationships of deltorphin analogues” (J Med Chem, 1991)
Non-standard residues stand in square brackets, D forms with d. Residues, ends and D or L forms follow the SMILES beside them. Abu = CC[C@H](N)C(=O)O

Assays:
Mu-type opioid receptor [1] = target: T1, Mu-type opioid receptor (Rattus norvegicus, UniProt P33535); test: Displacement of [3H]- DAGO from opioid receptor mu in rat brain membrane; type: cell membranes
[2] = target: T2, Delta-type opioid receptor (Rattus norvegicus, UniProt P33533); test: Displacement of [3H]- DPDPE from delta opioid receptor in rat brain membrane; type: cell membranes
T2 sequence (P33533 whole entry): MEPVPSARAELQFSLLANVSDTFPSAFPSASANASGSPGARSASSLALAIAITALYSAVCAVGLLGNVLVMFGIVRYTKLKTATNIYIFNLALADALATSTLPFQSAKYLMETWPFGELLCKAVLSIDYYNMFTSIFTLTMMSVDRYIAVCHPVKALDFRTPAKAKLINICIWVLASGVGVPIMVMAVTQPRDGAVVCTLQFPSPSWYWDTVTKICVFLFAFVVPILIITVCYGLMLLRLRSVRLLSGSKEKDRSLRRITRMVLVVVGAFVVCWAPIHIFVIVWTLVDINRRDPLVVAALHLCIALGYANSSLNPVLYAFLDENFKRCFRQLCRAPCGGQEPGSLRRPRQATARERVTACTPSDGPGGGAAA

[3] = target: T2, Delta-type opioid receptor; test: Displacement of [3H]DSLET from delta opioid receptor in rat brain membrane; type: cell membranes
Mu-type opioid receptor [4] = target: T3, Mu-type opioid receptor (Cavia porcellus, UniProt P97266); test: Inhibition of opioid receptor mu in guinea pig ileum (GPI); type: tissue-based
T3 sequence (P97266 whole entry): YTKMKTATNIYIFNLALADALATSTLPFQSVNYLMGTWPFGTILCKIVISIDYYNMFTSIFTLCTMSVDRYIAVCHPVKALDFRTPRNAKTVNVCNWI

[5] = target: T4, Delta-type opioid receptor (Mus musculus, UniProt P32300); test: In vitro opioid receptor delta mediated mouse vas deferens (MVD) assay; type: tissue-based
T4 sequence (P32300 whole entry): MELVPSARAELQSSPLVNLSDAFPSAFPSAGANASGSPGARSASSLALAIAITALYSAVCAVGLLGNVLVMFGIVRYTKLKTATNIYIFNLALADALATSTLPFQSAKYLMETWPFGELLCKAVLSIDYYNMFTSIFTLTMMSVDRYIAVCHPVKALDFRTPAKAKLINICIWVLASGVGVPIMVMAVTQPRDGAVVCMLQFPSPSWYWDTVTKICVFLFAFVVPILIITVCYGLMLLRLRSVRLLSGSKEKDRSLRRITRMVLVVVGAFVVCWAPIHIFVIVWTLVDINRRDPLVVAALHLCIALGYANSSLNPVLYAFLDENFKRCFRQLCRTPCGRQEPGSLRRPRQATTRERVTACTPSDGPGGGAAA

Mu-type opioid receptor [6] = target: T1, Mu-type opioid receptor; test: Opioid receptor mu 1 binding affinity in rat brain membrane preparations by the displacement of [3H]- DAGO; type: cell membranes
[7] = target: T4, Delta-type opioid receptor; test: Compound is tested in vitro in mouse vas deferens (MVD) assay mediated by Opioid receptor delta 1; type: tissue-based
[8] = target: T2, Delta-type opioid receptor; test: Opioid receptor binding affinity in rat brain membrane preparations by the displacement of [3H]DSLET (Opioid receptor delta 1-selective radioligand); type: cell membranes
Mu-type opioid receptor [9] = target: T3, Mu-type opioid receptor; test: Compound is tested in vitro in guinea pig ileum (GPI) assay mediated by Opioid receptor mu 1; type: tissue-based
[10] = (§1) IC50 ratio is GPI/MVD
[11] = as §1; type: functional
[12] = IC50 ratio is [3H]- DAGO/[3H]-DSLET
[13] = target: T2, Delta-type opioid receptor; test: Opioid receptor binding affinity in rat brain membrane preparations by the displacement of [3H]- DPDPE (Opioid receptor delta 1-selective radioligand); type: cell membranes

T1 sequence (P33535 whole entry): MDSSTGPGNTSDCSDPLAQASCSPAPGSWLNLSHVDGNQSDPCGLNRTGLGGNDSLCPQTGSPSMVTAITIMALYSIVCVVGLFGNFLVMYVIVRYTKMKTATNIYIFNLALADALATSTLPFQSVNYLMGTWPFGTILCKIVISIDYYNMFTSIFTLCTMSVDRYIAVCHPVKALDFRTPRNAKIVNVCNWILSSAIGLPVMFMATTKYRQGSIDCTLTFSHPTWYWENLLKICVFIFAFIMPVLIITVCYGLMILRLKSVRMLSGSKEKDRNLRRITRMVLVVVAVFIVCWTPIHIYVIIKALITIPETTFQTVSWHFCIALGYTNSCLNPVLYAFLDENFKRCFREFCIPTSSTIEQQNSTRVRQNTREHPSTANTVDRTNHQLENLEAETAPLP

Question: For `CC(C)[C@H](NC(=O)[C@H](CC(=O)O)NC(=O)[C@H](Cc1ccccc1)NC(=O)[C@H](C)NC(=O)[C@@H](N)Cc1ccc(O)cc1)C(=O)N[C@H](C(=O)NCC(N)=O)C(C)C`, which IC50 (Mu-type opioid receptor [1]) is on record?
Answer: 0.91 µM

Question: And the IC50 [2]?
Answer: 0.0011 µM

Question: And the IC50 [3]?
Answer: 0.0015 µM

Question: What about the IC50 (Mu-type opioid receptor [4]) of the same molecule?
Answer: 0.42 µM

Question: With `CC(C)[C@H](NC(=O)[C@H](CCC(=O)O)NC(=O)[C@H](Cc1ccccc1)NC(=O)[C@H](C)NC(=O)[C@@H](N)Cc1ccc(O)cc1)C(=O)N[C@H](C(=O)NCC(N)=O)C(C)C` as the molecule, how does the IC50 [2] read?
Answer: 0.0036 µM

Question: What about the IC50 [3] of the same molecule?
Answer: 0.0038 µM

Question: And the IC50 (Mu-type opioid receptor [4])?
Answer: 5.2 µM

Question: Which results are given for `C[C@H](NC(=O)[C@@H](N)Cc1ccc(O)cc1)C(=O)N[C@@H](Cc1ccccc1)C(=O)N[C@@H](CC(=O)O)C(N)=O` (H-YAFD-NH2)?
Answer: IC50 (Mu-type opioid receptor [1]): 0.1 µM; IC50 [3]: 0.96 µM; IC50 (Mu-type opioid receptor [4]): 0.16 µM; IC50 [5]: 1 µM

Question: With `CC[C@H](NC(=O)[C@@H](NC(=O)CNC(=O)[C@H](Cc1ccccc1)NC(=O)[C@H](C)NC(=O)[C@@H](N)Cc1ccc(O)cc1)C(C)C)C(=O)N[C@@H](CC(=O)O)C(N)=O` (H-YAFGV[Abu]D-NH2) as the molecule, how does the IC50 (Mu-type opioid receptor [6]) read?
Answer: 0.13 µM

Question: What about the IC50 [7] of the same molecule?
Answer: 0.0111 µM

Question: What about the IC50 [8] of the same molecule?
Answer: 0.0295 µM

Question: And the IC50 (Mu-type opioid receptor [9])?
Answer: 0.13 µM

Question: What about the Ratio [10] of the same molecule?
Answer: 12

Question: Which results are given for `CC[C@H](NC(=O)[C@H](CCSC)NC(=O)[C@H](CC(C)C)NC(=O)[C@H](Cc1cnc[nH]1)NC(=O)[C@H](Cc1ccccc1)NC(=O)[C@H](CCSC)NC(=O)[C@@H](N)Cc1ccc(O)cc1)C(N)=O` (H-YMFHLM[Abu]-NH2)?
Answer: IC50 (Mu-type opioid receptor [1]): 0.36 µM; IC50 [2]: 0.0074 µM; IC50 [3]: 0.018 µM; IC50 (Mu-type opioid receptor [4]): 0.3 µM; IC50 [5]: 0.0015 µM

Question: Which Ratio [11] does the source give for `CC[C@H](NC(=O)[C@H](CCSC)NC(=O)[C@H](CC(C)C)NC(=O)[C@H](Cc1c[nH]cn1)NC(=O)[C@H](Cc1ccccc1)NC(=O)[C@H](CCSC)NC(=O)[C@@H](N)Cc1ccc(O)cc1)C(N)=O` (H-YMFHLM[Abu]-NH2) here?
Answer: 200

Question: Which IC50 (Mu-type opioid receptor [1]) does the source give for `CSCC[C@H](NC(=O)[C@H](CC(C)C)NC(=O)[C@H](Cc1cnc[nH]1)NC(=O)[C@H](Cc1ccccc1)NC(=O)[C@@H](CCSC)NC(=O)[C@@H](N)Cc1ccc(O)cc1)C(=O)N[C@@H](CC(=O)O)C(N)=O` (H-Y[dM]FHLMD-NH2) here?
Answer: 1.2 µM

Question: And the IC50 [2]?
Answer: 0.0061 µM

Question: What about the IC50 [3] of the same molecule?
Answer: 0.009 µM

Question: What about the IC50 (Mu-type opioid receptor [4]) of the same molecule?
Answer: 1.9 µM

Question: And the IC50 [5]?
Answer: 0.0013 µM

Question: Which IC50 [3] does the source give for `CC(C)[C@H](NC(=O)[C@H](CCC(=O)O)NC(=O)[C@H](Cc1ccccc1)NC(=O)[C@H](C)NC(=O)[C@@H](N)Cc1ccc(O)cc1)C(=O)N[C@H](C(=O)NCC(=O)O)C(C)C` [DELTORPHINE II] here?
Answer: 0.184 µM

Question: What about the IC50 (Mu-type opioid receptor [4]) of the same molecule?
Answer: 9 µM

Question: And the IC50 [5]?
Answer: 0.00555 µM

Question: Which IC50 (Mu-type opioid receptor [1]) does the source give for `C[C@@H](NC(=O)[C@@H](N)Cc1ccc(O)cc1)C(=O)N[C@@H](Cc1ccccc1)C(=O)NCC(=O)N[C@@H](Cc1ccc(O)cc1)C(=O)N1CCC[C@H]1C(=O)N[C@@H](CO)C(N)=O` [DERMORPHIN] here?
Answer: 0.0032 µM

Question: And the IC50 (Mu-type opioid receptor [4])?
Answer: 0.00141 µM

Question: For H-YAFDV-NH2, which IC50 (Mu-type opioid receptor [1]) is on record?
Answer: 0.64 µM

Question: And the IC50 [3]?
Answer: 0.099 µM

Question: What about the IC50 (Mu-type opioid receptor [4]) of the same molecule?
Answer: 0.65 µM

Question: What about the IC50 [5] of the same molecule?
Answer: 0.22 µM

Question: For H-YAFDVV-NH2, which IC50 (Mu-type opioid receptor [1]) is on record?
Answer: 0.7 µM

Question: And the IC50 [3]?
Answer: 0.0039 µM

Question: And the IC50 (Mu-type opioid receptor [4])?
Answer: 0.32 µM

Question: What about the IC50 [5] of the same molecule?
Answer: 0.0075 µM

Question: Which IC50 (Mu-type opioid receptor [6]) does the source give for H-YAFQVVG-NH2 here?
Answer: 0.28 µM

Question: What about the IC50 [7] of the same molecule?
Answer: 0.00151 µM

Question: And the IC50 [8]?
Answer: 0.0038 µM

Question: And the IC50 (Mu-type opioid receptor [9])?
Answer: 0.28 µM

Question: What about the Ratio [10] of the same molecule?
Answer: 185

Question: What about the Ratio [12] of the same molecule?
Answer: 73

Question: For H-YMFDLMD-OH, which IC50 (Mu-type opioid receptor [6]) is on record?
Answer: > 30 µM

Question: And the IC50 [7]?
Answer: 0.38 µM

Question: And the IC50 [13]?
Answer: 0.055 µM

Question: And the IC50 [8]?
Answer: 0.08 µM

Question: And the IC50 (Mu-type opioid receptor [9])?
Answer: > 15 µM

Question: And the Ratio [10]?
Answer: > 40

Question: And the Ratio [12]?
Answer: > 375

Question: Which IC50 (Mu-type opioid receptor [1]) does the source give for H-YMFFLMD-NH2 here?
Answer: 0.45 µM

Question: And the IC50 [2]?
Answer: 0.011 µM

Question: And the IC50 [3]?
Answer: 0.015 µM

Question: And the IC50 (Mu-type opioid receptor [4])?
Answer: 0.075 µM

Question: What about the IC50 [5] of the same molecule?
Answer: 0.0016 µM

Question: What about the Ratio [11] of the same molecule?
Answer: 47

Question: What does the source list for H-YMFGLMD-NH2?
Answer: IC50 (Mu-type opioid receptor [6]): 0.161 µM; IC50 [7]: 0.00165 µM; IC50 [13]: 0.008 µM; IC50 [8]: 0.014 µM; IC50 (Mu-type opioid receptor [9]): 0.1 µM; Ratio [10]: 62; Ratio [12]: 11.5

Question: With H-YMFHLMD-OH as the molecule, how does the IC50 (Mu-type opioid receptor [1]) read?
Answer: 1.5 µM

Question: What about the IC50 [2] of the same molecule?
Answer: 0.0024 µM

Question: What about the IC50 [3] of the same molecule?
Answer: 0.0045 µM

Question: And the IC50 (Mu-type opioid receptor [4])?
Answer: 6 µM

Question: What about the IC50 [5] of the same molecule?
Answer: 0.0013 µM

Question: Which IC50 (Mu-type opioid receptor [1]) does the source give for H-YMFHLMN-NH2 [listing 1 of 2 here] here?
Answer: 0.38 µM

Question: And the IC50 [2]?
Answer: 0.018 µM

Question: And the IC50 [3]?
Answer: 0.02 µM

Question: What about the IC50 (Mu-type opioid receptor [4]) of the same molecule?
Answer: 0.245 µM

Question: And the IC50 [5]?
Answer: 0.008 µM

Question: Which Ratio [11] does the source give for H-YMFHLMN-NH2 [listing 2 of 2 here] here?
Answer: 30

Question: Which results are given for H-YMFHLMN-OH?
Answer: IC50 (Mu-type opioid receptor [1]): 0.66 µM; IC50 [2]: 0.016 µM; IC50 [3]: 0.022 µM; IC50 (Mu-type opioid receptor [4]): 0.35 µM; IC50 [5]: 0.009 µM; Ratio [11]: 39

Question: Which results are given for H-YMFKLMD-NH2?
Answer: IC50 (Mu-type opioid receptor [6]): 6 µM; IC50 [7]: 1 µM; IC50 [13]: 0.38 µM; IC50 [8]: 0.55 µM; IC50 (Mu-type opioid receptor [9]): 7.5 µM; Ratio [10]: 7.5; Ratio [12]: 11

Question: For H-YMFYLMD-NH2, which IC50 (Mu-type opioid receptor [1]) is on record?
Answer: 0.158 µM

Question: And the IC50 [2]?
Answer: 0.0059 µM

Question: What about the IC50 [3] of the same molecule?
Answer: 0.0091 µM

Question: And the IC50 (Mu-type opioid receptor [4])?
Answer: 0.1 µM

Question: And the IC50 [5]?
Answer: 0.00102 µM

Question: And the Ratio [11]?
Answer: 100
